Values joined by “and” are separate entries in the source; they are usually repeats but may differ in a detail not shown here. Equal entries are not always repeated.
Columns and labels:
[1] = system: UA196 worms (human αS and GFP in DA neurons); assay: Confocal counting of healthy DA neurons in UA196 worms, early treatment (day two and four); assay type: in vivo, C. elegans; parameters: key to Total neurons, Average: healthy DA neurons per replicate of 10 worms, max 60
Excerpt: The aggregation of αS is associated with the neurodegeneration of DA neurons, which is a pathological hallmark of PD. Next, we investigated the neuroprotective effect of NS163 on the intraneuronal αS aggregation-mediated degeneration of DA neurons in a well-established C. elegans PD model (UA196)[20],[72]–[75]. The UA196 worms express both human αS and GFP in DA neurons under the control of the dopamine promoter genotype (Pdat-1::GFP; Pdat-1::α-SYN). The expression and aggregation of αS in six DA neurons that are located within the anterior region of worms lead to progressive neurodegeneration characteristics during the aging of UA196 worms. This strain has been used to gain insights into the PD-associated mechanisms and to assess the neuroprotective effect of ligands against the intraneuronal αS aggregation[20],[72]–[75]. During the aging of worms, αS protein aggregates and degenerates the DA neurons as represented by the gradual loss of cell bodies as observed from day 3 (Fig. 7b, c, filled red arrow) to day 5 (Fig. 7d, e, empty red arrow), to day 15 (Fig. 7f, g, empty red arrow). Additionally, there was fragmentation and blebbing of neurites from day 3 (Fig. 7b, c, filled yellow arrow) to day 5 (Fig. 7d, e, empty yellow arrow), which has been observed by others as well[72]–[75]. The maximum number of healthy DA neurons in one UA196 worm is six on day 3 (no degeneration) and we used 10 worms/biological replicate, which makes a total of 60 healthy DA neurons/biological replicate. Therefore, for each study, the maximum number of healthy DA neurons in UA196 worms is 60 as an average for each biological replicate. […] None of the UA196 worms had all six healthy DA neurons on day 5 (Fig. 7k, -NS163) and there was a gradual decline in the total number of healthy DA neurons in UA196 worms (Supplementary Fig. 26a). […] The average number of intact DA neurons in UA196 worms treated with NS163 was 59.5, 58.7, and 57.3 on day five, 10, and 15, respectively (Fig. 7j, red line). Additionally, the total number of treated worms with all six intact DA neurons were 57, 52, and 47 on day 5, 10, and 15, respectively (Fig. 7k, Supplementary Fig. 26b).
In UA196 strain, human αS and GFP are expressed in DA neurons under control of a dopamine transporter-specific promoter [Pdat-1::α-syn+Pdat-1::GFP], which results in age-dependent neurodegeneration of six DA neurons.
This experiment was performed based on previously described protocols with slight modifications[24],[65],[88]. Briefly, the worm strains (NL5901 or UA196) were bleached at the same time and the eggs were incubated on PLATE 1. On day two, the worms were divided into two batches. One half of the worms were transferred (using M9 buffer) on PLATE 2 (without ligand) and the second half of the worms were transferred to PLATE 3 (with ligand). The concentration of the ligands varied from 10–50 µM as described in the main manuscript. The worms were incubated on PLATE 2 or PLATE 3 up to day 3 at 20 °C in an incubator with constant humidity. On day four, the ligand (10–50 µM, stock conc. = 10 mM in DMSO, DMSO from 0.1–0.5%, v/v) was added again to PLATE 3. For confocal imaging, at least 10 worms per condition (from PLATE 2 or PLATE 3) were transferred to a cover slide containing an anesthetic (40 mM sodium azide), and mounted on glass microscope slide containing 2% agarose pads using a reported protocol. The images of the worms were collected using an Olympus Fluoview FV3000 confocal/2-photon microscope (40 x Plan-Apo/1.3 NA objective with DIC capability) and processed using the OlympusViewer in ImageJ software. For NL5901 worms, the inclusions of the aggregated αS (GFP puncta in the muscle cells) were manually counted (10 worms per condition) for the five-day imaging period (day 5 to day 9) for PLATE 2 or PLATE 3. […]

[2] = target: T1, αS monomer-αS fibers interaction (Homo sapiens, UniProt P37840); assay: HSQC NMR of 15N-αS monomer with αS fibers with or without NS132; assay type: binding; details: 70 μM 15N-αS + αS fibers, equimolar NS132, 24 h
T1 construct: purchased rpeptide, Bogart, GA
Description: We also employed 2D NMR HSQC for atomic-level insights into fibers-catalyzed aggregation of αS and its inhibition by NS132. […] We have also shown that NS132 specifically interacts with the N-terminal residues of αS. […] We incubated preformed fibers of αS with 70 μM ^15N-^1H-uniformly labeled αS monomer and used HSQC NMR to characterize the kinetics of fibers-catalyzed aggregation of αS on a molecular level. […] Also, αS fibers interact specifically with four αS sequences on the N-terminus, including residues 3-23, 40-45, 49-59, and 75-84 (Fig. 4b,c). There was an induction of a secondary structure in the αS monomer, indicated by the spreading of the amide peaks toward the ^1H resonances (Fig. 4c, green). […] Even after 40 h, there were fewer and smaller changes in the volume intensity of the amide peaks of ^15N-^1H-uniformly labeled αS monomer in the presence of NS132 (Fig. 4f).
For the HSQC experiments titrating NS132 into ^15N αS, the same experimental conditions were used as above. Incrementally, NS132 was added to a single ^15N αS solution, mixed, kept at r.t. for 10 min and HSQC was recorded under the conditions stated above. For HSQC experiments containing pre-formed fibrils (PFF) of αS, 5.4 eq. of PFF solution (500 μM) was added to monomeric ^15N αS solution, and the spectra was recorded as previously stated.

[3] = UA196+NS132, Day 3, 10 per trial
[4] = UA196+NS132, Day 5, 10 per trial
[5] = UA196+NS132, Day 10, 10 per trial
[6] = UA196+NS132, Day 15, 10 per trial

**Q.** Which “number of intact DA neurons in UA196 worms (max. 60)” value ([1]; 50 µM ligand on day two and four, day 15 (untreated 13.5)) does the source give for Cc1ccc(NC(=O)c2ccc(NC(=O)c3ccc([N+](=O)[O-])c(NCCc4c[nH]c5ccccc45)n3)c(NCC3CCCCC3)n2)c(OCC(=O)O)n1 [NS132] here?
**A.** 51

**Q.** What about the “Total neurons, Average” value ([1]; UA196+NS132, Day 3) of the same compound?
**A.** 59.5

**Q.** And the “Number of worms with 1 neurons” value [1, 3]?
**A.** 0

**Q.** What about the “Number of worms with 2 neurons” value [1, 3] of the same compound?
**A.** 0

**Q.** What about the “Number of worms with 6 neurons” value [1, 3] of the same compound?
**A.** 9 and 10

**Q.** And the “number of worms with 3 neurons” value [1, 3]?
**A.** 0

**Q.** And the “number of worms with 4 neurons” value [1, 3]?
**A.** 0

**Q.** What about the “Total neurons, Average” value ([1]; UA196+NS132, Day 5) of the same compound?
**A.** 55.8333

**Q.** What about the “Number of worms with 1 neurons” value [1, 4] of the same compound?
**A.** 0

**Q.** And the “Number of worms with 2 neurons” value [1, 4]?
**A.** 0

**Q.** What about the “Number of worms with 5 neurons” value [1, 4] of the same compound?
**A.** 2 and 3 and 4

**Q.** What about the “Number of worms with 6 neurons” value [1, 4] of the same compound?
**A.** 7 and 8 and 6 and 5

**Q.** What about the “number of worms with 3 neurons” value [1, 4] of the same compound?
**A.** 0

**Q.** And the “Total neurons, Average” value ([1]; UA196+NS132, Day 10)?
**A.** 53.1667

**Q.** What about the “Number of worms with 1 neurons” value [1, 5] of the same compound?
**A.** 0

**Q.** And the “Number of worms with 2 neurons” value [1, 5]?
**A.** 0

**Q.** What about the “Number of worms with 6 neurons” value [1, 5] of the same compound?
**A.** 6 and 4 and 5

**Q.** And the “number of worms with 3 neurons” value [1, 5]?
**A.** 0

**Q.** And the “Total neurons, Average” value ([1]; UA196+NS132, Day 15)?
**A.** 51

**Q.** And the “Number of worms with 1 neurons” value [1, 6]?
**A.** 0

**Q.** And the “Number of worms with 2 neurons” value [1, 6]?
**A.** 0

**Q.** And the “Number of worms with 5 neurons” value [1, 6]?
**A.** 5 and 4 and 3

**Q.** And the “Number of worms with 6 neurons” value [1, 6]?
**A.** 3 and 4 and 5

**Q.** What about the “Total neurons, UA196 worms+Ligands” value ([1]; UA196 worms+Ligands, one value per trial, day not given for ligand (controls: Day 3, Day 15)) of the same compound?
**A.** 53 and 48 and 50 and 54 and 49 and 52

**Q.** And the “change in the volume of the amide peaks of 15N-αS monomer with αS fibers, in words” value [2]?
**A.** no significant change

Source: article PMC11061149, “Protein mimetic 2D FAST rescues alpha synuclein aggregation mediated early and post disease Parkinson’s phenotypes” (Nature Communications, 2024)
